# Values quoted from earlier work, collected in patent publication US20100137787A1, “Delivery devices for modulating inflammation” (Searete LLC, a limited liability corporation of the State …, priority 2008, published 2010).
# What was measured:
# Toll-like receptor 4 = Toll-like receptor 4 (Homo sapiens, UniProt O00206)
# [1] = single agent, infused at 400 mg over one hour
# Sequence of Toll-like receptor 4 (O00206 24-839, species assumed): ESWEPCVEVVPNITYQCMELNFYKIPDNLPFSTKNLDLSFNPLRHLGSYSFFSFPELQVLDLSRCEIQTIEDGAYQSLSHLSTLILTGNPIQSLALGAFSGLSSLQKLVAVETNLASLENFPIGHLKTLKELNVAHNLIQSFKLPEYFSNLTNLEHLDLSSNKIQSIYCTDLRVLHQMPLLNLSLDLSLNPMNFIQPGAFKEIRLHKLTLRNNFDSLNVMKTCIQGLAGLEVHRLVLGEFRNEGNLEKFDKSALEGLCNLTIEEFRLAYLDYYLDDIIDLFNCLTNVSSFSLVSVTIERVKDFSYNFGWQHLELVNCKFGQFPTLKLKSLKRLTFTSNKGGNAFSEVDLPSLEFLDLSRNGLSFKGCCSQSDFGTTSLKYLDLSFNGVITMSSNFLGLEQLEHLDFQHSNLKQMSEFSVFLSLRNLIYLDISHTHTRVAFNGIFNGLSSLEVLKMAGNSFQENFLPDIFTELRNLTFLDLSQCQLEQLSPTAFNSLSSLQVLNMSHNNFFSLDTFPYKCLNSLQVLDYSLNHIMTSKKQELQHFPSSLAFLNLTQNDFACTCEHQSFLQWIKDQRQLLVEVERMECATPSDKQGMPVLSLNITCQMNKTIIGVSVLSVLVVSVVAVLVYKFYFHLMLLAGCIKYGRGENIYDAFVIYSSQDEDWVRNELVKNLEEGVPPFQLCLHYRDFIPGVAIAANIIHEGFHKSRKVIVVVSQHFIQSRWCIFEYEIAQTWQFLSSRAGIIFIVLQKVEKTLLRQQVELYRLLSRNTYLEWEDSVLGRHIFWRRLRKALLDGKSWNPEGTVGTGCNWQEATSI
smiles,measurement,setting,value
"Cl.Cl.Nc1ccccc1Oc1ccc2c(N)nsc2c1 [Example M62812, 3-amino-6-(2-aminophenoxy)-1,2-benzisothiazole dihydrochloride]",inhibitor of Toll-like receptor 4,Toll-like receptor 4,inhibitor of Toll-like receptor 4
"CCN(CC)CCCC(C)Nc1ccnc2cc(Cl)ccc12.O=P(O)(O)O.O=P(O)(O)O (stereo not shown) [chloroquine phosphate, 7-chloro-4-[[4-(diethylamino)-1-methylbutyl]amino]quinoline phosphate (1:2)]",tolerability of infusion,[1],without complication
"CCN(CC)C(=S)SSC(=S)N(CC)CC [disulfiram, 1-(diethylthiocarbamoyldisulfanyl)-N,N-diethyl-methanethioamide]",inhibition of aldehyde dehydrogenase,aldehyde dehydrogenase,inhibits
same,toxicity accompanying aldehyde dehydrogenase inhibition,aldehyde dehydrogenase,without toxicity
